Some test systems named below: A549; SF-268; SW-620; MCF7; NCI/ADR-RES; HOP-92; NCI-H522; HL-60; MDA-N; Hs-578T; T47D; HCC 2998; SF-295; CCRF-CEM; NCI-H23; SK-OV-3; OVCAR-8; M14; U-251; OVCAR-5.
Holding throughout (experiment): growth of human tumour cells (NCI), 48 h

The source of these data is ChEMBL document CHEMBL1201862, “PubChem BioAssay data set” (2004).

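Compound exposure: 48 hours, 5 concentrations, 96-well plates. GI50: concentration for 50% inhibition of growth.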 The source made the active and inactive calls. Cut-off read from the data, not from the text of the source: active = GI50 up to about 1.1 µM and inactive = higher.

As to `O=C1NC(S(=O)(=O)O)=NNC12c1ccccc1-c1ccccc12`, the GI50 in the assay on A549, in the assay with SF-268, in the assay with SW-620, in the assay on MCF7, in the assay on NCI/ADR-RES and with HOP-92 was > 10 µM (inactive) throughout. Also, the GI50 with NCI-H522 was > 10 µM (inactive); with HL-60, > 10 µM (inactive); with MDA-N, > 10 µM (inactive); in the assay on Hs-578T, > 10 µM (inactive); in the assay on T47D, 4.16 µM (inactive); with HCC 2998, > 10 µM (inactive). The GI50 in the assay on SF-295, in the assay on CCRF-CEM, in the assay on NCI-H23, in the assay with SK-OV-3, in the assay on OVCAR-8 and in the assay with M14 was > 10 µM (inactive) in each case.

Take `N#CC(C#N)/N=N/c1ccc(-c2nc3ccccc3o2)cc1`: the GI50 is 21 µM (inactive) in the assay on A549; 27.5 µM (inactive) with SF-268; 11.2 µM (inactive) in the assay with SW-620; 11.1 µM (inactive) in the assay on MCF7; 17.5 µM (inactive) with NCI/ADR-RES; 6.81 µM (inactive) with HOP-92. In addition, the GI50 in the assay with NCI-H522 was 5.02 µM (inactive); with U-251, 14.3 µM (inactive); in the assay on HL-60, 5.48 µM (inactive); in the assay on MDA-N it was 17.2 µM (inactive); in the assay on Hs-578T, 42 µM (inactive); in the assay with T47D it was 4.32 µM (inactive). The GI50 with HCC 2998 is 1.22 µM (inactive); in the assay with NCI-H23 it was 10.1 µM (inactive); in the assay on OVCAR-5, 17.4 µM (inactive); with SK-OV-3, 18.6 µM (inactive); in the assay with OVCAR-8, 23.6 µM (inactive); with M14, 15.2 µM (inactive).

As to `COC(=O)c1cc(C)ccc1CC(Cc1ccccc1C)C(=O)OC` (stereo unspecified), the GI50 was 51.6 µM (inactive) in the assay on A549; 61.2 µM (inactive) in the assay on SF-268; 69 µM (inactive) in the assay with SW-620; 23.3 µM (inactive) with MCF7; 32.6 µM (inactive) in the assay on NCI/ADR-RES; 14.4 µM (inactive) in the assay on HOP-92. Also, the GI50 with NCI-H522 was 25.8 µM (inactive); in the assay on HL-60 it was 13.2 µM (inactive); in the assay on MDA-N it was 28.4 µM (inactive); in the assay on Hs-578T it was 27.9 µM (inactive); in the assay on T47D it was 26 µM (inactive); in the assay with HCC 2998 it was 34.9 µM (inactive). Moreover, the GI50 was 38.2 µM (inactive) with SF-295; 14 µM (inactive) with CCRF-CEM; 40.1 µM (inactive) with NCI-H23; > 100 µM (inactive) with SK-OV-3; 45.5 µM (inactive) with OVCAR-8; 29.6 µM (inactive) with M14.

`N#CC1CCN2N=C(c3ccccc3)SC12c1ccccc1` (stereo unspecified): the GI50 is 23.7 µM (inactive) with A549; > 100 µM (inactive) with SF-268; 39.4 µM (inactive) with SW-620; 31.1 µM (inactive) in the assay with MCF7; 32.9 µM (inactive) with NCI/ADR-RES; 58.1 µM (inactive) in the assay with HOP-92. The GI50 with NCI-H522 is 46.2 µM (inactive); in the assay on U-251, 44 µM (inactive); in the assay with HL-60 it was 32.9 µM (inactive); in the assay with MDA-N, 54.7 µM (inactive); in the assay with Hs-578T it was 88.3 µM (inactive); in the assay on T47D, 24.5 µM (inactive). For the same compound, the GI50 in the assay with HCC 2998 is 26.7 µM (inactive); in the assay on SF-295, 60.5 µM (inactive); in the assay on NCI-H23, 32 µM (inactive); in the assay on OVCAR-5, > 100 µM (inactive); with SK-OV-3, > 100 µM (inactive); in the assay with OVCAR-8, 76.6 µM (inactive). Moreover, the GI50 in the assay with M14 is 45.6 µM (inactive).

On to `C=CCOc1ccc2c(C)cc(=O)oc2c1C`, for which the GI50 in the assay on A549 was 50.7 µM (inactive); with SF-268, 55.3 µM (inactive); in the assay on SW-620 it was 67 µM (inactive); in the assay with MCF7 it was 38.5 µM (inactive); with NCI/ADR-RES it was 46.8 µM (inactive); with HOP-92, 54.3 µM (inactive). For the same compound, the GI50 is 29.2 µM (inactive) in the assay with NCI-H522; 54.2 µM (inactive) with U-251; 32.4 µM (inactive) in the assay on HL-60; 42 µM (inactive) in the assay with MDA-N; 26.9 µM (inactive) in the assay with Hs-578T; 47.9 µM (inactive) with T47D. Moreover, the GI50 was 33 µM (inactive) in the assay on HCC 2998; 23.3 µM (inactive) with SF-295; 45.4 µM (inactive) in the assay on CCRF-CEM; > 100 µM (inactive) in the assay with NCI-H23; > 100 µM (inactive) in the assay on OVCAR-5; 56.8 µM (inactive) in the assay on OVCAR-8. The GI50 in the assay on M14 is 46.5 µM (inactive).

Take `Nc1nc(-c2ccccc2)c(-c2ccccc2)c(-c2nc(N)nc(-c3ccccc3)c2-c2ccccc2)n1`: the GI50 in the assay with A549 is > 100 µM (inactive); in the assay with SF-268 it was > 100 µM (inactive); in the assay with SW-620, > 100 µM (inactive); in the assay with MCF7, 49.4 µM (inactive); in the assay on NCI/ADR-RES it was > 100 µM (inactive); in the assay on HOP-92, > 100 µM (inactive). For the same compound, the GI50 in the assay with NCI-H522 was 57.9 µM (inactive); in the assay with U-251 it was > 100 µM (inactive); in the assay on HL-60 it was > 100 µM (inactive); with MDA-N, 75.7 µM (inactive); in the assay on Hs-578T, > 100 µM (inactive); in the assay with T47D it was 49.7 µM (inactive). The GI50 with HCC 2998 was 49 µM (inactive); with SF-295, 78.9 µM (inactive); in the assay on NCI-H23 it was > 100 µM (inactive); in the assay with OVCAR-5 it was > 100 µM (inactive); in the assay on SK-OV-3, > 100 µM (inactive); in the assay on OVCAR-8, > 100 µM (inactive). Also, the GI50 in the assay on M14 was > 100 µM (inactive).

`NC(=O)NCCCC(NC(=O)OCCCCn1ccc(=O)[nH]c1=O)C(=O)O` (stereo unspecified): the GI50 with A549, in the assay on SF-268, with SW-620, in the assay with MCF7, in the assay with NCI/ADR-RES and in the assay on HOP-92 was > 100 µM (inactive) throughout. For the same compound, the GI50 in the assay with U-251, in the assay with HL-60, in the assay on MDA-N, with Hs-578T, in the assay with T47D and with HCC 2998 was > 100 µM (inactive) in each case. Also, the GI50 in the assay with SF-295, with CCRF-CEM, with NCI-H23, with OVCAR-5, with SK-OV-3 and with OVCAR-8 was > 100 µM (inactive) throughout. For the same compound, in the assay on M14, the GI50 was > 100 µM (inactive).

Consider `CCCCCC(O)C(O)CCC[C@H](O)[C@H]1CC[C@H]([C@H]2CC[C@H]([C@H](O)CCCCCCCCCCCCC3=C[C@H](C)OC3=O)O2)O1` (stereo partly specified), for which the GI50 with A549 is 2.21 µM (inactive); with SF-268 it was 1.83 µM (inactive); with SW-620, 3.44 µM (inactive); with MCF7, 1.9 µM (inactive); in the assay with NCI/ADR-RES, 0.853 µM (active); with HOP-92 it was 23.4 µM (inactive). The GI50 with NCI-H522 was 4.88 µM (inactive); with U-251 it was 3.73 µM (inactive); in the assay with HL-60, 1.57 µM (inactive); with MDA-N it was 2.83 µM (inactive); in the assay on Hs-578T it was 2.91 µM (inactive); in the assay on T47D it was 7.19 µM (inactive). The GI50 is 11 µM (inactive) in the assay on HCC 2998; 1.97 µM (inactive) with SF-295; 1.09 µM (active) with CCRF-CEM; 1.37 µM (inactive) with NCI-H23; 15.7 µM (inactive) in the assay on OVCAR-5; 2.99 µM (inactive) in the assay on OVCAR-8. Also, the GI50 with M14 is 3.49 µM (inactive).

Consider `Cc1sc2nc3n(c(=O)c2c1C)N=C(c1ccc(Cl)cc1)CS3`, for which the GI50 with A549, in the assay with SF-268, with SW-620, with MCF7, with NCI/ADR-RES and with HOP-92 was > 100 µM (inactive) each time. In addition, the GI50 in the assay with NCI-H522 was > 100 µM (inactive); with U-251, > 100 µM (inactive); in the assay with HL-60, > 100 µM (inactive); with MDA-N it was > 100 µM (inactive); in the assay on Hs-578T it was 82.6 µM (inactive); in the assay on T47D, > 100 µM (inactive). Moreover, the GI50 in the assay with HCC 2998, in the assay with SF-295, with CCRF-CEM, in the assay with NCI-H23, in the assay with OVCAR-5 and with SK-OV-3 was > 100 µM (inactive) throughout. Further, in the assay on OVCAR-8, the GI50 is > 100 µM (inactive).

As to `O=C(O)CCCCC1CCSS1` (stereo not drawn) [LIPOIC ACID, ALPHA], the GI50 in the assay with A549 was > 100 µM (inactive); in the assay with SF-268 it was > 100 µM (inactive); with SW-620, > 100 µM (inactive); in the assay on MCF7, > 100 µM (inactive); in the assay with NCI/ADR-RES, > 100 µM (inactive); in the assay with HOP-92, 30 µM (inactive). Moreover, the GI50 in the assay with NCI-H522 was > 100 µM (inactive); in the assay with U-251, > 100 µM (inactive); in the assay on HL-60, 34.3 µM (inactive); in the assay on MDA-N, > 100 µM (inactive); in the assay on Hs-578T, > 100 µM (inactive); in the assay on T47D it was > 100 µM (inactive). In addition, the GI50 in the assay with HCC 2998 is 72.6 µM (inactive); in the assay on SF-295, > 100 µM (inactive); with CCRF-CEM, > 100 µM (inactive); with NCI-H23 it was > 100 µM (inactive); in the assay on OVCAR-5 it was > 100 µM (inactive); in the assay on OVCAR-8, > 100 µM (inactive). In the assay on M14, the GI50 was 77.1 µM (inactive).

With `Cc1nn(-c2ccccc2)c2c1C(c1cc3ccccc3nc1Cl)NC(=S)N2` (stereo unspecified), the GI50 with A549 is > 100 µM (inactive); in the assay on SF-268 it was 34.8 µM (inactive); in the assay on SW-620, 30.1 µM (inactive); in the assay on MCF7, 38 µM (inactive); with NCI/ADR-RES it was 46.3 µM (inactive); in the assay on HOP-92 it was 18.2 µM (inactive). For the same compound, the GI50 in the assay on NCI-H522 was 14.3 µM (inactive); in the assay on U-251, 23.4 µM (inactive); in the assay on HL-60, 35.5 µM (inactive); in the assay with MDA-N, 45.7 µM (inactive); in the assay with Hs-578T, 37.7 µM (inactive); in the assay on T47D, > 100 µM (inactive). The GI50 is 43.4 µM (inactive) with SF-295; 31.9 µM (inactive) in the assay with CCRF-CEM; 67.3 µM (inactive) in the assay on NCI-H23; > 100 µM (inactive) in the assay on OVCAR-5; 97.5 µM (inactive) in the assay on SK-OV-3; 27.9 µM (inactive) in the assay on OVCAR-8. Also, the GI50 in the assay on M14 is > 100 µM (inactive).
